Reference: patent publication US9351489B2 (priority 2010, dated 2016)

What was measured:
[1] = logP by HPLC on reversed phase columns (EEC directive 79/831 Annex V.A8); assay type: physicochemical; details: for chromatographic logP: reversed phase HPLC columns
Description: Measurement of logP values was performed according EEC directive 79/831 Annex V.A8 by HPLC (High Performance Liquid Chromatography) on reversed phase columns with the following methods:
^[a] measurement of LC-MS was done at pH 2.7 with 0.1% formic acid in water and with acetonitrile (contains 0.1% formic acid) as eluent with a linear gradient from 10% acetonitrile to 95% acetonitrile. […]

Phytophthora infestans = assay type: in vivo; details: tomato plants, preventive spray, 500 ppm of active ingredient, evaluated 7 days after inoculation; 0% = untreated control, 100% = no disease
Plasmopara viticola = test: Plasmopara test (grapevines)/preventive; assay type: in vivo; details: preventive spray, 100 ppm of active ingredient, evaluated 6 days after inoculation, 0% = untreated control, 100% = no disease
Description: Plasmopara Test (Grapevines)/Preventive • Solvent: 24.5 parts by weight of acetone • 24.5 parts by weight of dimethylacetamide • Emulsifier: 1 part by weight of alkylaryl polyglycol ether
To produce a suitable preparation of active compound, 1 part by weight of active compound is mixed with the stated amounts of solvent and emulsifier, and the concentrate is diluted with water to the desired concentration. To test for preventive activity, young plants are sprayed with the preparation of active compound at the stated rate of application. After the spray coating has dried on, the plants are inoculated with an aqueous spore suspension of Plasmopara viticola and then remain for 1 day in an incubation cabinet at approximately 20° C. and a relative atmospheric humidity of 100%. The plant is subsequently placed for 4 days in a greenhouse at approximately 21° C. and a relative atmospheric humidity of approximately 90%. The plants are then misted and placed for 1 day in an incubation cabinet. The test is evaluated 6 days after the inoculation. 0% means an efficacy which corresponds to that of the untreated control, while an efficacy of 100% means that no disease is observed.

[2] = method [a]: LC-MS at pH 2.7, 0.1% formic acid in water / acetonitrile, gradient 10% to 95% acetonitrile
[3] = pH 2.7, method [a]: LC-MS at pH 2.7, 0.1% formic acid in water / acetonitrile, gradient 10% to 95% acetonitrile
[4] = pH 2.7, value in preparation example text, method not given

Row | SMILES | LogP [1, 2] | also measured
1 | COCC(=O)C(C#N)=C(NC(C)C(C)C)c1ccccc1Br (stereo not shown) [Example 19] | 3.27^[a] | Efficacy in % (Phytophthora infestans): 95%; Efficacy in % (Plasmopara viticola): 74%
2 | CC(C)C(C)NC(=C(C#N)C(=O)C1CC1)c1ccccc1Cl (stereo not shown) [Example 31] | 4.18^[a] | –
3 | CC(C)C(C)NC(=C(C#N)C(=O)c1ccco1)c1ccccc1Cl (stereo not shown) [Example 6] | 3.87^[a] | –
4 | CCC(=O)C(C#N)=C(NC(C)C1CC1)c1ccccc1Br (stereo not shown) [Example 28] | 3.60^[a] | –
5 | CCCC(=O)C(C#N)=C(N[C@@H](C)C1CC1)c1ccccc1Br [Example 34] | 4.10^[a] | Efficacy in % (Phytophthora infestans): 93%
6 | CCCC(=O)C(C#N)=C(NC(C)C(C)C)c1ccccc1Cl (stereo not shown) [Example 13, 2-{(2-chlorophenyl)[(3-methylbutan-2-yl)amino]methylene}-3-oxohexanenitrile] | – | chromatographic logP [1, 3]: 4.44; chromatographic logP [1, 4]: 4.44
7 | C[C@H](NC(=C(C#N)C(=O)C1CCCCO1)c1ccccc1Br)C1CC1 (stereo partly shown) [Example 32] | 3.50^[a] | –
8 | COCC(=O)C(C#N)=C(NC(C)C(C)C)c1ccccc1Cl (stereo not shown) [Example 23] | 3.21^[a] | –
9 | CC(NC(=C(C#N)C(=O)CC1CC1)c1ccccc1Br)C1CC1 (stereo not shown) [Example 24] | 4.06^[a] | Efficacy in % (Phytophthora infestans): 85%
10 | CC(C)C(C)NC(=CC#N)c1ccccc1Cl (stereo not shown) [3-(2-chlorophenyl)-3-[(3-methylbutan-2-yl)amino]acrylonitrile] | – | chromatographic logP [1, 4]: 3.27
11 | CC(NC(=C(C#N)C(=O)CCl)c1ccccc1Br)C1CC1 (stereo not shown) [Example 7] | 3.50^[a] | –
12 | CC(C)CC(=O)C(C#N)=C(N[C@@H](C)C(C)C)c1ccccc1Cl [Example 33] | 4.73^[a] | –
13 | CC(C)C(C)NC(=C(C#N)C(=O)C1CCCCO1)c1ccccc1Br (mixture of isomers) [Example 26] | 3.80^[a] | –
14 | COCCC(=O)C(C#N)=C(NC(C)C1CC1)c1ccccc1Br (stereo not shown) [Example 3] | 3.20^[a] | –
15 | CC(C)C(C)NC(=C(C#N)C(=O)C1CC1)c1ccccc1Br (stereo not shown) [Example 8] | 4.21^[a] | –
16 | CCCCC(=O)C(C#N)=C(NC(C)C(C)C)c1ccccc1Cl (stereo not shown) [Example 14] | 4.81^[a] | –
17 | CCCC(=NC#N)C(C#N)=C(N[C@@H](C)C(C)C)c1ccccc1Cl [Example 36] | 3.85^[a] | –
18 | CCCCC(=O)C(C#N)=C(NC(C)C(C)C)c1ccccc1Br (stereo not shown) [Example 12] | 4.85^[a] | –
19 | CC(C)C(C)NC(=C(C#N)C(=O)CCl)c1ccccc1Cl (stereo not shown) [Example 18] | 3.78^[a] | –

Row | SMILES | LogP [1, 2] | also measured
20 | CC(C)C(C)NC(=C(C#N)C(=O)C1CCC1)c1ccccc1Br (stereo not shown) [Example 22] | 4.64^[a] | –
21 | CC(NC(=C(C#N)C(=O)C1CCC1)c1ccccc1Br)C1CC1 (stereo not shown) [Example 11] | 4.20^[a] | –
22 | CCC(=O)C(C#N)=C(NC(C)C(C)C)c1ccccc1Br (stereo not shown) [Example 9] | 4.04^[a] | –
23 | CC(NC(=C(C#N)C(=O)C1CC1)c1ccccc1Br)C1CC1 (stereo not shown) [Example 20] | 3.90^[a] | –
24 | COCC(=O)C(C#N)=C(NC(C)C1CC1)c1ccccc1Br (stereo not shown) [Example 5] | 3.00^[a] | Efficacy in % (Phytophthora infestans): 93%
25 | N#CC=C(Cl)c1ccccc1Cl [3-chloro-3-(2-chlorophenyl)acrylonitrile] | – | chromatographic logP [1, 4]: 3.02; LogP ([1]; value in preparation example text, method not given): 3.23
26 | CC(NC(=C(C#N)C(=O)c1ccco1)c1ccccc1Br)C1CC1 (stereo not shown) [Example 10] | 3.50^[a] | –
27 | COCCC(=O)C(C#N)=C(NC(C)C(C)C)c1ccccc1Cl (stereo not shown) [Example 27] | 3.55^[a] | –
28 | CC(C)C(C)NC(=C(C#N)C(=O)CC1CC1)c1ccccc1Br (stereo not shown) [Example 16] | 4.34^[a] | Efficacy in % (Phytophthora infestans): 95%
29 | CC(NC(=C(C#N)C(=O)Cc1ccccc1)c1ccccc1Br)C1CC1 (stereo not shown) [Example 25] | 4.20^[a] | –
30 | CC(NC(=C(C#N)C(=O)C1CCOC1)c1ccccc1Br)C1CC1 (mixture of isomers) [Example 30] | 3.25^[a] | –
31 | CC(C)C(C)NC(=C(C#N)C(=O)C1CCOC1)c1ccccc1Br (mixture of isomers) [Example 1] | 3.60^[a] | –
32 | CCCCC(=O)C(C#N)=C(NC(C)C1CC1)c1ccccc1Br (stereo not shown) [Example 15] | 4.40^[a] | –
33 | CC(C)C(C)NC(=C(C#N)C(=O)C1CCCC1)c1ccccc1Br (stereo not shown) [Example 4] | 5.05^[a] | –
34 | CC(C)C(C)NC(=C(C#N)C(=O)CC1CC1)c1ccccc1Cl (stereo not shown) [Example 2] | 4.27^[a] | –
35 | CC(NC(=C(C#N)C(=O)C1CCCC1)c1ccccc1Br)C1CC1 (stereo not shown) [Example 29] | 4.60^[a] | –
36 | CCCC(=NOC)C(C#N)=C(NC(C)C(C)C)c1ccccc1Cl (stereo not shown) [Example 35, 2-{(2-chlorophenyl)[(3-methylbutan-2-yl)amino]methylene}-3-(methoxyimino)hexanenitrile] | – | chromatographic logP [1, 3]: 5.34; chromatographic logP [1, 4]: 5.34
37 | CNCC(=O)C(C#N)=C(NC(C)C(C)C)c1ccccc1Cl (stereo not shown) [Example 21] | 1.89^[a] | –
38 | CCCC(=O)C(C#N)=C(NC(C)C(C)C)c1ccccc1Br (stereo not shown) [Example 17] | 4.40^[a] | Efficacy in % (Phytophthora infestans): 100%; Efficacy in % (Plasmopara viticola): 93%
